The source of these data is patent US20220259172A1, “CHEMICAL INHIBITORS OF ID PROTEINS FOR THE TREATMENT OF CANCER AND OTHER DISEASES” (Universität Heidelberg, priority 2019, published 2022).

SMILES strings stand for the structures. Entries after “also recorded” stand apart in the source; their conditions may differ.

The test system of series [1] is Id1. Nature of the series: Compound screen: BMP4-induced Id1 expression, Western blot. The conditions noted are these: for Inhibitory effect on Id1 protein expression: B16-F10 and Ret cells, BMP4 10 ng/ml and compound simultaneously, 24 h, rated relative to CBD. The format is cell-based, murine. Here is the method:
(§1) To screen compounds with an inhibitory effect on Id1 and Id3 expression, cells were simultaneously stimulated with BMP4 (10 ng/ml, 315-27, Peprotech) and substances at the indicated concentrations for 24 h. DMSO served as a solvent control. Effects on Id1 and Id3 expression levels were analysed by Western blotting.
(§2) Western blot analysis was performed using standard methods. The following antibodies were used for protein detection: Id1 (195-14, CalBioreagents), Id3 (17-3, CalBioreagents), β-actin (AC-15, Sigma Aldrich), Vinculin (VIN-11-5, Sigma Aldrich). Protein bands were detected using HRP conjugated secondary antibodies (P0447, P0448, Agilent Technologies) and enhanced chemiluminescence (32106, Thermo Fisher Scientific).
(§3) B16-F10 and Ret melanoma cells were treated with BMP4 to induce Id1 and Id3 expression, and simultaneously treated with each of the compounds individually for a 24 h period.
(In western blotting, separated proteins are transferred to a membrane and probed.)

For series [2], the system named is Id3. Nature of the series: Compound screen: BMP4-induced Id3 expression, Western blot. It counts as cell-based, murine. The conditions noted are these: for Inhibitory effect on Id3 protein expression: B16-F10 and Ret cells, BMP4 10 ng/ml and compound simultaneously, 24 h, rated relative to CBD. Here is the method: as §1, §2, §3
The target of series [3] is CB2 (Homo sapiens, UniProt P34972). The conditions noted are these: cited from earlier work.
CB2, sequence (P34972 whole entry, species assumed): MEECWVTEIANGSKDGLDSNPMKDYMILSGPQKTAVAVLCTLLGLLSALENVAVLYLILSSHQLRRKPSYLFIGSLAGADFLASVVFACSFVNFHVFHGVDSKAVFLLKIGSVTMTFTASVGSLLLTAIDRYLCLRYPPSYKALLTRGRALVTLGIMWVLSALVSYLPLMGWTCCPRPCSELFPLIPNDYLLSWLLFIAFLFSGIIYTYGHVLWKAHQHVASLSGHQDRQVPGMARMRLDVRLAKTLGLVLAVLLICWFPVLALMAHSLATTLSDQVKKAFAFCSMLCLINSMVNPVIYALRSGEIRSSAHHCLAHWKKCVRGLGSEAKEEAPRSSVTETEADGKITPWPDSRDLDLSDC
For series [4], the system named is mouse embryonic fibroblasts (MEFs). The series is described as follows: Proliferation/cytotoxicity in mouse embryonic fibroblasts, 2D culture. It counts as cell-based.
Series [5] relates to B16-F10 melanoma cells. Nature of the series: Tumor growth and initiation in vivo, B16-F10. The arrangement: species or system mice. The conditions noted are these: for Number of animals with tumors: B16-F10 cells, 8 mice per group, assessed over 90 days. The source says:
(§4) B16-F10 (A) or Ret (B) cells were co-injected with Matrigel into syngeneic mice. […] Numbers indicate the number of animals with a tumor in each group. Bar graphs show the mean tumor volume in each group at the day when the first animal had reached the legal tumor size limit. Kaplan-Meier curves show the percentage of tumor-free animals in percent as a measure for tumor initiation.
(§5) Cells were harvested using trypsin/EDTA and washed in PBS. The indicated numbers of living melanoma cells were subcutaneously injected into the flank of syngeneic mice in 100 μl PBS. For co-injection experiments, the indicated number of living cells was resuspended in 100 μl Matrigel HC (10 mg/ml, #354262, Corning Inc.), and subcutaneously injected into the flank. Tumor volume was calculated using the formula 4/3π (d1/2×d2/2×d3/2), where d1−d3 represents the diameter of the tumor in three dimensions. […] All animal experiments were approved by the local authorities, and performed according to the German legal requirements. Tumor initiating cell (TIC) frequency and p-values were calculated using ELDA software.
(§6) To investigate the anti-tumor properties of the selected Id1/Id3-inhibiting compounds, groups of experimental mice (8 per group) were injected subcutaneously with B16-F10 or Ret melanoma cells. […] Melanoma initiation and growth was assessed over a period of 90 days.

The test system of series [6] is B16-F10 and Ret cells. The series is described as follows: Proliferation of melanoma cells in 2D culture. It counts as cell-based, murine.
Series [7] relates to mammary carcinoma. The conditions noted are these: orthotropic mammary carcinoma model; cited from earlier work.
Series [8] has as its system Id1. The conditions noted are these: cited from earlier work.
A short description of series [9]: Toxicity observed in treated tumor-bearing mice. The format is in vivo. The conditions noted are these: daily intraperitoneal injections; for Toxicity in the treated mice: 14 days. The procedure:
as §5
In contrast, daily intraperitoneal injections of CBD led to the death of two mice in the experiment with Ret cell-derived tumors (cause of death unknown).

The subject of series [10] is B16-F10 and Ret cells. The series is described as follows: 3D Matrigel assay. It counts as cell-based, murine. Here is the method: X8166 inhibits melanoma cell growth in 3D Matrigel. B16-F10 (A) or Ret (B) control or CRISPR/Cas9 Id1/Id3 cells were seeded in 3D Matrigel (10 mg/ml) and grown for six days before analysis. B16-F10 or Ret cells were treated daily with DMSO or X8166 (7.5 μM). The number of colonies at six positions of each well of a 48-well plate were counted in each z-level (5-10 z-levels were imaged per position).
Cells (2×10^3) were mixed with Matrigel to obtain 150 μl of a cell/Matrigel (10 mg/ml, #354262, Corning Inc.) solution, which was seeded into a well of a 48-well plate. The gel was allowed to solidify at 37° C. for 30 min and was subsequently overlaid with 500 μl complete growth medium. After six days of culture, images were captured using a Leica DMI6000 B microscope at six different x/y positions in every well, and a minimum of five horizontal layers (z levels) at each position, in order to get every cell in focus for image analysis. Image analysis was performed using Fiji software as follows: First, images were transformed into 8-bit files (pixel values from 0 (black) to 255 (white)). The scale was set to distance=0, known=0, pixel=1, and unit=pixel global. Outlines of each colony in focus in every image were detected using the integrated semi-automatic magic wand tool. Once outlines were matching the morphology of the colony were obtained, the colony was filled white (pixel value 255) using the fill function. Thresholding of pixel values (threshold=255) allowed black (background) and white (colonies) images of the filled colonies to be obtained. The “Analyze particles” function was applied to measure the area and perimeter of colonies with a minimum pixel size of 1500. An invasive index was calculated as follows: Invasive index=(perimeter)^2/area, resulting in a unitless measure of invasiveness.

Series [11] concerns glioma. The conditions noted are these: glioma model; cited from earlier work.
Series [12] has as its system Id1. Nature of the series: Id1 expression in HUVECs, Western blot. It counts as cell-based, Human. The conditions noted are these: proliferating HUVECs; 24 hours (FIG. 10A). The procedure: (§7) Human umbilical vein endothelial cells (HUVECs) and lymphatic endothelial cells (LECs) were cultivated in EBM™-2 Endothelial Cell Growth Basal Medium supplemented with EGM™-2 MV Microvascular Endothelial Cell Growth Medium-2 SingleQuots™ Kit (both Lonza, catalogue numbers CC-3156 and CC4176, respectively), hereafter referred to as endothelial cell growth medium. HUVECs and LECs were cultivated in the presence of the indicated concentrations of X6632, or with DMSO as a solvent control. After 24 hours, cells were harvested. Lysates were western blotted and probed with antibodies against Id1 and Id3. Western blots probed with vinculin antibodies served as loading controls.
as §2
(§8) The effect of X6632 on Id1 and Id3 expression in cultivated proliferating human umbilical vein endothelial cells (HUVECs) was investigated. […] LDN-193189, an antagonist of BMP receptor isotypes ALK2 and ALK3, served as a positive control reference for inhibition of Id1 and Id3 expression.

Series [13] deals with Id3. Nature of the series: Id3 expression in HUVECs, Western blot. The format is cell-based, Human. The conditions noted are these: proliferating HUVECs; 24 hours (FIG. 10A). Here is the method: as §7, §2, §8
In series [14] the test system is Ret melanoma cells. Nature of the series: Tumor growth and initiation in vivo, Ret. The arrangement: species or system mice.
From the text: as §4, §5, §6

Where [15] appears, read: compound 3.3 μM, BMP4, 24 h (FIG. 9B).

On to `O=C(Nc1nn(Cc2ccc(C(F)(F)F)cc2)c2c(C(F)(F)F)cccc12)c1ccccc1` [X8035], for which the “Inhibitory effect on Id1 protein expression” value in series [1] is “strongest inhibitory activities”. The “Inhibitory effect on Id3 protein expression” value in [2] was “strongest inhibitory activities”.
As for `C=C(C)[C@@H]1CCC(C)=C[C@H]1c1c(O)cc(CCCCC)cc1O` [CBD, Cannabidiol, reference compound], the “Inhibition of Id1 expression” value in series [1] (setting [15]) is recorded as “does not inhibit”. Moreover, the “Affinity for CB2” value in series [3] is listed as “low affinity”. The “Proliferation / cytotoxicity, non-transformed MEFs” value in [4] was “strongly inhibited; also recorded: more toxic”. The “Number of animals with tumors” value in series [5] was “seven out of eight”. Further, the “Proliferation / cytotoxicity, melanoma cells” value in [6] is reported as “strongly inhibited; also recorded: more cytotoxic”. In [7], the “Levels of Id1 in tumor tissue” value is given as “reduced levels”; the “Primary tumor growth and lung metastasis” value is given as “inhibition”. The “Inhibition of Id3 expression” value in series [2] (setting [15]) is “does not inhibit”. Further, the “Id1 expression at the transcriptional level” value in [8] was “inhibits”. Besides, the “Toxicity in the treated mice” value in series [9] is “toxicity-related injury to their intestinal organs”. The Death of mice entry in [9] (experiment with Ret cell-derived tumors, cause of death unknown) was “two”. The “3D assays could not be performed with daily application, reason” value in series [10] (daily application in 3D Matrigel) is listed as “cytotoxicity”. In series [11], the Id1 expression result was “inhibited”, the Invasion in vivo result is recorded as “decreased invasion” and the “Survival of tumor-bearing mice” value was “prolonged survival”.
Consider `Cc1cc(=O)oc2cc(O)ccc12` [4-methylumbelliferone, reference compound], for which the Id1 protein expression entry in [12] was “did not reduce”. Further, the Id3 protein expression entry in series [13] is listed as “did not reduce”.
In the case of `CCCCCCC(C)(C)c1cc(O)c2cc(Cc3ccccc3O)c(=O)oc2c1` [X106], the “Inhibitory effect on Id1 protein expression” value in series [1] is on record as “strongest inhibitory activities”. Besides, the “Inhibitory effect on Id3 protein expression” value in [2] is on record as “strongest inhibitory activities”.
Consider `Cc1ccc(Cn2cc(CC(=O)Nc3ccc(C(F)(F)F)cc3)c3ccccc32)cc1` [X8706], for which the “Inhibitory effect on Id1 protein expression” value in series [1] is “strongest inhibitory activities”. In [2], the “Inhibitory effect on Id3 protein expression” value was “strongest inhibitory activities”.
Consider `Cc1ccc(CN(C(=O)c2ccccc2)c2nn(Cc3ccc(C)cc3)c3c(C(F)(F)F)cccc23)cc1` [X8766], for which the “Inhibitory effect on Id1 protein expression” value in series [1] is “strongest inhibitory activities”. Also, the “Inhibitory effect on Id3 protein expression” value in [2] is given as “strongest inhibitory activities”.
Consider `CCCCCCCC(C)(C)c1cc(O)c2cc(Cc3ccccc3O)c(=O)oc2c1` [X81], for which the “Inhibitory effect on Id1 protein expression” value in series [1] is “strongest inhibitory activities”. The “Inhibitory effect on Id3 protein expression” value in series [2] is reported as “strongest inhibitory activities”.
On to `CCCCn1cc(C(=O)Cc2ccccc2)c2ccccc21` [X8166], for which the “Inhibitory effect on Id1 protein expression” value in series [1] is on record as “strongest inhibitory activities”. The “Melanoma growth and initiation” value was “significantly inhibit; also recorded: potent inhibitors” in series [14] (Ret cells co-injected with Matrigel, syngeneic mice, daily i.p. first 14 days, compared to DMSO) and “significantly inhibit; also recorded: potent inhibitors” in series [5] (B16-F10 cells co-injected with Matrigel, syngeneic mice, daily i.p. first 14 days, compared to DMSO). In addition, the “Number of mice that did not develop any tumors” value in series [14] (Ret cells, 8 mice per group, assessed over 90 days) is listed as 2 mice. The “Tumor growth and initiation compared to CBD” value is listed as “significantly more” in [14] (Ret experiment, daily i.p. first 14 days) and “significantly more” in series [5] (B16-F10 experiment, daily i.p. first 14 days). For the same compound, in series [4], the “Proliferation / cytotoxicity, non-transformed MEFs” value was “modest inhibitory effect; also recorded: well tolerated; also recorded: superior; also recorded: less cytotoxic”. Besides, in [5], the “Number of animals with tumors” value was “none”. For the same compound, the “Proliferation / cytotoxicity, melanoma cells” value in series [6] is “modest inhibitory effect; also recorded: less cytotoxic”. Further, the “Inhibitory effect on Id3 protein expression” value in series [2] is recorded as “strongest inhibitory activities”. Also, the “Toxicity in the treated mice” value in series [9] is “no evidence for toxicity was observed; also recorded: well tolerated”. The “Growth of melanoma cells in 3D Matrigel” value in series [10] (Matrigel 10 mg/ml, six days, treated daily, X8166 7.5 μM) was “significantly impaired; also recorded: inhibits”.
